Literature values as cited in PMC9686516, “Pharmacokinetic Characteristics of Nebulized Colistimethate Sodium Using Two Different Types of Nebulizers in Critically Ill Patients with Ventilator-Associated Respiratory Infections” (Antibiotics, 2022).
Where a SMILES comes first, the peptide text is derived from it. Bridges are numbered along the chain shown (N, C = ends). [ ]: non-standard residue; d: D form. The star is where a group is joined. X1 = CC[C@H](C)CCCCC(=O)*; Dab = NCC[C@H](N)C(=O)O

Key:
[1] = test system: Pseudomonas aeruginosa; details: animal thigh and lung infection models; cited from earlier work
[2] = piglets, cited from earlier work
Method: Nevertheless, in a piglet model of ventilated P. aeruginosa inoculation pneumonia, Lu et al. observed a serum maximum colistin concentration of 1.6 ± 1.4 mg/L after VMN aerosolization of 0.1 mIU/kg of CMS [28]. […] Post-nebulization colistin tissue levels have never been measured in humans; if the results abov ...

[3] = 1 mIU of CMS via VMN; similar ICU setting; median (IQR); cited from earlier work
Method: In this single-center study, we compared the pharmacokinetic properties of formed colistin in the ELF and the plasma compartment when inhaled CMS, at a typical dose, was administered either via a VMN or a generic JN. […] Indeed, the median total (as opposed to unbound) AUC0–24 in the ELF for the two modalities were 86.2 and 91.5 mg/L*h for VMN and JN, respectively. […] However, the ELF exposure was similar, despite the higher dose, probably due to a higher clearance from the lung compartment in our study, as evidenced by the ... || Contrarily, our results were only marginally compatible with the results of Boisson et al. and Gkoufa et al.. In the former study, the range of colistin concentration in the ELF following a 2 mIU inhalation spanned from 9.53 to 1137 mg/L [14], while it was between 0.8 mg/L and 57.9 mg/L in the present study. In the latter study, the exact values were not reported, however in the figured data it was shown that after an inhalation of 3 to 5 mIU of CMS, formed colistin concentrations were in the range of 10^2 to 10^3 mg/L [16]. Again, it is not known whether these differences we ...

[4] = adjunctive aerosolized colistin; meta-analysis of mostly observational data; cited from earlier work
Description: The rationale has been the theoretic ability to achieve sufficient concentration in the infectious milieu of the lung parenchyma while sparing any significant systemic adverse outcome. In contrast to these theoretical considerations, inhaled CMS has only had modest efficacy and in ...

CC[C@H](C)CCCCC(=O)N[C@@H](CCN)C(=O)N[C@H](C(=O)N[C@@H](CCN)C(=O)N[C@H]1CCNC(=O)[C@H]([C@@H](C)O)NC(=O)[C@H](CCN)NC(=O)[C@H](CCN)NC(=O)[C@H](CC(C)C)NC(=O)[C@@H](CC(C)C)NC(=O)[C@H](CCN)NC1=O)[C@@H](C)O [colistin] (X1-[Dab]T[Dab][Dab][Dab][dL]L[Dab][Dab]T; lactam 4-C)
fAUC/MIC predicting 1-log killing [1]: 12.2–22.8 | median peak lung tissue concentration ([2]; 1 h after the third inhaled dose, upon sacrifice): 2.8 µg/g | serum maximum colistin concentration ([2]; VMN aerosolization of 0.1 mIU/kg of CMS, ref 28 (Lu et al.)): 1.6 ± 1.4 mg/L | Cmax in ELF [3]: 6.7 (4.8–10.1) mg/L | decrease in the odds of infection-related mortality [4]: ~40% | increase in the odds of clinical cure [4]: approximately 60%
